# Assay: in vitro
# Settings: human, hela cells, % viability
row,Structure (SMILES),"viability at 28.5 h, 10 µM [%]"
1,COC(=O)c1cscc1NC(=O)c1cnc(-c2cccc(C)c2)c(-c2ccc(C(C)=O)s2)c1 [CBK036760],85.4
2,CC(=O)c1ccc(-c2cc(C(=O)NC3CCc4ccccc43)cnc2-c2ccc(Cl)cc2)s1 (stereo not drawn) [CBK036762],96.9
3,c1csc(-c2nccnc2NCCc2ccncc2)c1 [CBK036764],108
4,O=C(NCCn1cc[nH]c1=O)c1cnc(-c2ccc(Cl)cc2)c(-c2ccc(O)cc2)c1 [CBK036766],92
5,Fc1cccc(-c2nccnc2NCC2CC2)c1 [CBK036767],94.4
6,Cc1cccc(-c2ncc(C(=O)NCc3csc4ccc(Cl)cc34)cc2-c2ccncc2)c1 [CBK036770],89.6
7,COc1ccccc1-c1nccnc1N(C)Cc1ccccc1 [CBK036774],102
8,c1ccc(CCNc2nccnc2-c2cccs2)nc1 [CBK036776],97.7
9,CS(=O)(=O)c1cccc(C(=O)Nc2cnc(-c3ccc(F)c(Cl)c3)c(-c3cccnc3)n2)c1 [CBK036779],101
10,Cc1noc(C)c1C(=O)Nc1cnc(-c2ccc(F)cc2)c(-c2ccsc2)n1 [CBK036781],97.6
11,CCOc1ccccc1C(=O)Nc1cnc(-c2cccc(C)c2)c(-c2ccc(N)cc2)n1 [CBK036783],107
12,COc1cccc(CNc2nccnc2-c2cccs2)c1OC [CBK036784],95.7
13,COc1ccc(-c2nc(NC(=O)c3ccccn3)cnc2-c2cccc(C(F)(F)F)c2)cc1 [CBK036785],110
14,CN1CCCC(C(=O)Nc2cnc(-c3cccc(C(F)(F)F)c3)c(-c3cccnc3)n2)C1 (stereo not drawn) [CBK036787],87.2
15,COc1ccccc1-c1nccnc1NCc1ccc(C(F)(F)F)cc1 [CBK036788],109
16,c1ccc(CCNc2nccnc2-c2ccoc2)nc1 [CBK036790],86.1
17,O=C(Nc1cnc(-c2ccc(F)c(Cl)c2)c(-c2cccnc2)n1)c1ccc(N2CCCC2=O)cc1 [CBK036794],107
18,Cc1cccc(CNc2nccnc2-c2cccs2)c1 [CBK036808],104
19,CC(=O)NCC(=O)Nc1cnc(-c2cccc(C(F)(F)F)c2)c(-c2cccnc2)n1 [CBK036809],103
20,O=C(c1ccc(-c2nccnc2N2CCN(CCO)CC2)cc1)N1CCOCC1 [CBK036812],92.1
21,COc1ccc(-c2nc(NC(=O)C3CCC(OC)CC3)cnc2-c2cccc(C)c2)cn1 (stereo not drawn) [CBK036813],109
22,COc1ccc(NC(=O)c2ccc(-c3ccc(Nc4ccc5c(c4)OCCO5)nc3)cc2)cc1 [CBK036815],88.7

row,Structure (SMILES),"viability at 28.5 h, 10 µM [%]"
1,CC(=O)c1ccc(-c2nc(NC(=O)c3cccc([N+](=O)[O-])c3)cnc2-c2ccc(F)c(Cl)c2)s1 [CBK036816],97.2
2,COc1ncc(-c2nccnc2NCc2cccnc2)c(OC)n1 [CBK036817],101
3,COc1ccc(Nc2cccc(-c3cnc(OC)nc3OC)n2)cc1 [CBK036825],89.6
4,CCCCCOc1ccc(Nc2ccc(-c3cc4ccccc4o3)cn2)cc1 [CBK036828],93.6
5,CC(=O)Nc1cccc(-c2ccc(Nc3cccc(N(C)C)c3)nc2)c1 [CBK036829],97.9
6,COc1cccc(CCC(=O)Nc2cnc(-c3cccc(C(F)(F)F)c3)c(-c3cccnc3)n2)c1 [CBK036835],90
7,CS(=O)(=O)c1ccc(CNc2nccnc2-c2ccccc2F)cc1 [CBK036836],96.4
8,OCc1cccc(-c2nccnc2NCC(O)COc2ccccc2)c1 (stereo not drawn) [CBK036842],94.3
9,c1cc(-c2ccc(Nc3ccc(N4CCOCC4)cc3)nc2)cs1 [CBK036844],97.6
10,C=CCNc1nccnc1-c1ccncc1 [CBK036845],90.7
11,COc1cc(-c2nccnc2N2CCN(c3ccncc3)CC2)cc(OC)c1OC [CBK036847],92
12,OCCN1CCN(c2ccc(/C=C/c3ccccc3)cn2)CC1 [CBK036849],89.2
13,COc1ccc(-c2nc(NC(=O)C3CC3)cnc2-c2cccc(C(F)(F)F)c2)cc1 [CBK036852],98
14,C(=C\c1cccc(N2CCN(CCN3CCCC3)CC2)n1)/c1ccccc1 [CBK036853],97.8
15,COc1ccc(Nc2ccc(-c3ccsc3)cn2)c(C)c1 [CBK036855],109
16,CCCCCOc1ccc(Nc2ccc(-c3cccc(Cl)c3Cl)cn2)cc1 [CBK036856],111
17,CC(=O)Nc1cccc(-c2ccc(N3CCN(CCN(C)C)CC3)nc2)c1 [CBK036857],104
18,OC(CNc1nccnc1-c1ccco1)COc1ccccc1 (stereo not drawn) [CBK036862],96.7
19,O=C(Cc1c[nH]c2ccccc12)Nc1cnc(-c2cccc(OC(F)(F)F)c2)c(-c2cccnc2)n1 [CBK036863],108
20,C=CCNc1nccnc1-c1ccc(CO)cc1 [CBK036870],91.4
21,C=CCNc1nccnc1-c1cc(OC)c(OC)c(OC)c1 [CBK036872],102
22,Fc1ccc(-c2cccc(N3CCN(c4ccccn4)CC3)n2)cc1Cl [CBK036877],104

row,Structure (SMILES),"viability at 28.5 h, 10 µM [%]"
1,O=C(Nc1cnc(-c2cccc(C(F)(F)F)c2)c(-c2cccnc2)n1)c1cc(-c2ccco2)n[nH]1 [CBK036878],104
2,CN1CCC(C(=O)Nc2cnc(-c3cccc(OC(F)(F)F)c3)c(-c3cccnc3)n2)CC1 [CBK036882],108
3,CN(C)c1cccc(Nc2ccc(-c3ccco3)cn2)c1 [CBK036885],96.8
4,CCCC/C=C/c1ccc(Nc2ccc(N3CCOCC3)cc2)nc1 [CBK036886],88.7
5,O=C(c1ccc(-c2nccnc2NCCc2c[nH]c3ccccc23)cc1)N1CCOCC1 [CBK036891],95.6
6,CCCNc1nccnc1-c1ccc(C(=O)N2CCN(C)CC2)cc1 [CBK036892],110
7,O=C(COc1ccccc1[N+](=O)[O-])Nc1cnc(-c2cccc(C(F)(F)F)c2)c(-c2ccco2)n1 [CBK036899],86.3
8,CN(C)c1ccc(-c2nccnc2NCc2ccc(S(C)(=O)=O)cc2)cc1 [CBK036902],104
9,COc1ccc(C(C)C)cc1-c1nccnc1NCc1ccc(S(C)(=O)=O)cc1 [CBK036903],92.5
10,CCOc1cccc(-c2ccc(N(C)CCN(C)C)nc2)c1 [CBK036904],94.8
11,CN(C)CCN1CCN(c2ccc(-c3ccsc3)cn2)CC1 [CBK036915],96.2
12,CN1CCN(c2cccc(-c3ccsc3)n2)CC1 [CBK036916],90.2
13,Cc1cc(-c2nccnc2NCc2ccccn2)cc(C)c1O [CBK036921],94.2
14,C=CCNc1nccnc1-c1cnc(OC)nc1OC [CBK036922],91.7
15,COc1ncc(-c2nccnc2N[C@@H]2CCN(Cc3ccccc3)C2)c(OC)n1 [CBK036926],101
16,COc1ccc(C(C)C)cc1-c1nccnc1NCC1COC(C)(C)O1 (stereo not drawn) [CBK036930],101
17,O=C(c1ccc(-c2nccnc2NCc2ccc(C(F)(F)F)cc2)cc1)N1CCOCC1 [CBK036931],100
18,COc1ncc(-c2ccc(NCC(C)C)nc2)c(OC)n1 [CBK036934],116
19,COc1cc(-c2nccnc2NCc2ccccn2)cc(OC)c1OC [CBK036936],96.8
20,COCCC(=O)Nc1cnc(-c2ccc(F)c(Cl)c2)c(-c2cccnc2)n1 [CBK036938],95.2
21,OCCN1CCN(c2ccc(-c3cc(C(F)(F)F)cc(C(F)(F)F)c3)cn2)CC1 [CBK036941],99
22,COc1ccc(Nc2cccc(-c3ccc(CCC(=O)O)cc3)n2)cc1 [CBK036943],106

row,Structure (SMILES),"viability at 28.5 h, 10 µM [%]"
1,CN1CCN(c2ccc(-c3ccc(Cl)cc3)cn2)CC1 [CBK036945],95.2
2,CCCCCOc1ccc(Nc2ccc(-c3cccnc3)cn2)cc1 [CBK036948],109
3,O=C1CCC(C(=O)Nc2cnc(-c3cccc(C(F)(F)F)c3)c(-c3cccnc3)n2)=NN1 [CBK036950],88.3
4,CCN(CC)CCN1CCN(c2cc(-c3cccnc3)ncn2)CC1 [CBK036957],94.8
5,O=c1[nH]ccn1CCNc1cc(-c2ccccc2Oc2ccccc2)ncn1 [CBK036966],90.4
6,O=C(CCOc1ccccc1)Nc1cnc(-c2ccc(F)cc2)c(-c2ccco2)n1 [CBK036967],93.1
7,CC(=O)c1ccc(-c2nccnc2NCC(O)COc2ccccc2)s1 (stereo not drawn) [CBK036976],107
8,CS(=O)(=O)c1ccc(-c2nccnc2NCc2cccnc2)cc1 [CBK036977],104
9,CN(C)CCN(C)c1ccc(-c2ccc(F)c(Cl)c2)cn1 [CBK036979],96.8
10,COc1ncc(-c2ccc(Nc3ccc(N4CCOCC4)cc3)nc2)c(OC)n1 [CBK036988],95
11,COc1ccc(-c2nc(NC(=O)COc3ccc(C)c4c3CCC4)cnc2-c2ccc(F)cc2)cc1 [CBK036990],88.7
12,COc1ccc(C(=O)OC(C)(C)C)c(-c2nccnc2N[C@@H](C)c2ccccc2)c1 [CBK036994],94.2
13,Cc1c(O)cccc1Nc1cc(-c2cccc(N(C)C)c2)ncn1 [CBK036995],94.3
14,NS(=O)(=O)c1ccc(C(=O)Nc2cnc(-c3ccc(F)cc3)c(-c3ccsc3)n2)cc1 [CBK036998],98.8
15,COc1ccc(-c2nc(NC(=O)C3CCC(OC)CC3)cnc2-c2ccc(F)cc2)cc1 (stereo not drawn) [CBK037004],88.4
16,Clc1cc(Nc2ccc3[nH]ccc3c2)n2nccc2n1 [CBK037009],84.7
17,OC(CNc1nccnc1-c1cccc(C(F)(F)F)c1)COc1ccccc1 (stereo not drawn) [CBK037010],89.9
18,OCC1CCCN1c1cc(Cl)nc2ccnn12 (stereo not drawn) [CBK037011],95.7
19,CC(C)[C@H](CO)Nc1nccnc1-c1ccc(C(=O)N2CCOCC2)cc1 [CBK037012],97.7
20,CN1CCN(c2cc(-c3cccc4cccnc34)nc3ccnn23)CC1 [CBK037013],90.8
21,Oc1cccc(-c2nccnc2NCc2cccc(C(F)(F)F)c2)c1 [CBK037014],86.9

# Source: PMC12040169 (PLOS Biology, 2025)
